{"source": "patent US20190090524A1", "about": "“NOVEL COMPOSITIONS FOR FLAVOR ENHANCEMENT” (INTERNATIONAL FLAVORS & FRAGRANCES INC., priority 2016, published 2019)", "type_in_all_cases": "in vivo", "key": {"[1]": {"experiment": "Carbonation effect intensity in carbonated water (7.2 g/L CO2), panel, scale 0 to 10", "conditions": "mean; 2.5 ppt in carbonated water 7.2 g/L CO2; scale 0 to 10 (0=none, 4=medium, 7=high, 10=extremely high); p<0.01 vs carbonated water alone", "procedure": "(A) A β-sitosterol solution (prepared in Example I) was added to the carbonated water (7.2 g/L CO2) (prepared in Example I) to yield a final concentration of 2.5 ppt.\nThe carbonation effect of the obtained sample was evaluated and compared by a panel with the carbonated water using an intensity scale of 0 to 10, where 0=none, 4=medium, 7=high and 10=extremely high. The intensity of carbonation effect was rated. Mean (“Carbonation Intensity”) and standard error of the mean (“SE”, +) were obtained."}, "[2]": {"experiment": "Alcohol sensation in 17.5% ABV solution with 3 to 500 ppb β-sitosterol", "procedure": "(B) A series of β-sitosterol solutions (prepared in Example I) were added to the alcohol solution at 17.5% ABV (prepared in Example I) to yield final concentrations of β-sitosterol ranging from 3 to 500 ppb. The alcohol sensation of the obtained samples containing different amounts of β-sitosterol was evaluated."}, "[3]": {"experiment": "Alcohol impression in alcohol-free beer, panel comparison with alcohol solutions", "conditions": "25 ppb in Brahma 0.0% alcohol free beer", "procedure": "1. […] 2. Alcohol solutions containing varying amounts of ethanol (Alcohol by Volume, “ABV”) were prepared as follows: • Alcohol solutions at 1% ABV, 2% ABV, 2.5% ABV, 3% ABV and 5% ABV were prepared by adding varying amounts of ethanol in Brahma 0.0% alcohol-free beer (Anheuser-Busch InBev); • Alcohol solution at 6% ABV was prepared by adding ethanol in water; and • Alcohol solutions with ABV ranging from 8.75% to 50% were prepared by diluting CAPTAIN MORGAN® Original Spiced Rum (35% ABV) (Diageo North America Inc.) in varying amounts of water. 3. Carbonated water containing carbon dioxide at 6.0, 7.2 and 8.0 g/L, respectively, were prepared.\nA β-sitosterol solution (prepared in Example I) was added in Brahma 0.0% alcohol free beer to yield a final concentration of 25 ppb. The alcohol impression of the obtained sample was evaluated and compared by a panel with alcohol solutions at 1% ABV, 2% ABV, 2.5% ABV, 3% ABV and 5% ABV (prepared in Example I). 3-Sitosterol (25 ppb) provided an equal level of alcohol impression as the alcohol solution at 2.5% ABV."}, "[4]": {"experiment": "Carbonation sensation in carbonated water (7.2 g/L CO2) with 0.1 to 50 ppt β-sitosterol", "procedure": "(B) A series of β-sitosterol solutions (prepared in Example I) were added to the carbonated water (7.2 g/L CO2) (prepared in Example I) to yield final concentrations ranging from 0.1 to 50 ppt. The carbonation sensation of the obtained samples containing different amounts of […] was evaluated."}, "[5]": {"experiment": "Alcohol sensation intensity in 6% ABV solution, panel, scale 0 to 10", "conditions": "mean; 100 ppb in solution of 6% ABV; scale 0 to 10 (0=none, 4=medium, 7=high, 10=extremely high); p<0.01 vs 6% ABV alone", "procedure": "(A) A β-sitosterol solution (prepared in Example I) was added to the alcohol solution at 6% ABV (prepared in Example I) to yield a final concentration of 100 ppb.\nThe alcohol sensation of the obtained sample was evaluated and compared by a panel with the alcohol solution at 6% ABV using an intensity scale of 0 to 10, where 0=none, 4=medium, 7=high and 10=extremely high. The intensity of alcohol sensation was rated. Mean (“Alcohol Intensity”) and standard error of the mean (“SE”, +) were obtained."}, "[6]": {"experiment": "Carbonation sensation in carbonated water of 6.0, 7.2 and 8.0 g/L CO2 with 2.5 ppt β-sitosterol", "conditions": "2.5 ppt in carbonated water of 6.0, 7.2 and 8.0 g/L CO2, all samples", "procedure": "(C) A β-sitosterol solution (prepared in Example I) was added to carbonated water of 6.0, 7.2 and 8.0 g/L CO2 (prepared in Example I), respectively, to yield a final concentration of 2.5 ppt. The carbonation sensation of the obtained samples was evaluated."}, "[7]": {"experiment": "Flavor of β-sitosterol solutions in water", "conditions": "2.5 to 600 ppb"}, "[8]": {"experiment": "Alcohol sensation of alcohol solutions with 25 ppb β-sitosterol, panel comparison with higher ABV solutions", "procedure": "(C) A β-sitosterol solution (prepared in Example I) was added to alcohol solutions at 8.75% ABV, 17.5% ABV and 21.75% ABV (prepared in Example I), respectively, to yield a final concentration of 25 ppb. The alcohol sensation of the obtained samples was evaluated and compared by a panel with alcohol solutions at higher levels of ABV, respectively."}}, "data": [{"compound": "CC[C@H](CC[C@@H](C)[C@H]1CC[C@H]2[C@@H]3CC=C4C[C@@H](O)CC[C@]4(C)[C@H]3CC[C@]12C)C(C)C", "note": "[β-sitosterol, (3S,8S,9S,10R,13R,14S,17R)-17-((1R,4R)-4-ethyl-1,5-dimethyl-hexyl)-10,13-dimethyl-2,3,4,7,8,9,10,11,12,13,14,15,16,17-tetradecahydro-1H-cyclopenta[a]phenanthren-3-ol]", "values": [{"measurement": "Carbonation Intensity", "setting": "[1]", "result": 7.19}, {"measurement": "alcohol sensation", "setting": "[2]; 3 ppb in alcohol solution at 17.5% ABV", "result": "slight but noticeable increase in alcohol sensation"}, {"measurement": "enhancement of alcohol sensation", "setting": "[2]; 200 ppb in alcohol solution at 17.5% ABV", "result": "reached a stable plateau"}, {"measurement": "alcohol sensation", "setting": "[2]; at a higher concentration than 3 ppb in alcohol solution at 17.5% ABV", "result": "clear increase of alcohol intensity"}, {"measurement": "alcohol impression, equal level as alcohol solution", "setting": "[3]", "result": 2.5, "unit": "% ABV"}, {"measurement": "carbonation perception", "setting": "[4]; 0.1 ppt in carbonated water 7.2 g/L CO2", "result": "slight increase in carbonation perception"}, {"measurement": "carbonation perception", "setting": "[4]; 2.5 ppt in carbonated water 7.2 g/L CO2", "result": "clear increase in carbonation perception"}, {"measurement": "enhancement of carbonation effect", "setting": "[4]; 5 ppt or higher in carbonated water 7.2 g/L CO2", "result": "reached a stable plateau"}, {"measurement": "Alcohol Intensity", "setting": "[5]", "result": 7.21}, {"measurement": "carbonation sensation", "setting": "[6]", "result": "provided enhancement of carbonation sensation"}, {"measurement": "flavor of β-sitosterol itself", "setting": "[7]", "result": "no noticeable flavor"}, {"measurement": "alcohol sensation at the level of an alcohol solution", "setting": "[8]; 25 ppb in alcohol solution at 8.75% ABV", "result": 10, "unit": "% ABV"}, {"measurement": "alcohol sensation at the level of an alcohol solution", "setting": "[8]; 25 ppb in alcohol solution at 17.5% ABV", "result": 22.5, "unit": "% ABV"}, {"measurement": "alcohol sensation at the level of an alcohol solution", "setting": "[8]; 25 ppb in alcohol solution at 21.75% ABV", "result": 35, "unit": "% ABV"}]}]}
